Data published in US10766902B2, “Wee-1 inhibiting pyrazolopyrimidinone compounds” (ALMAC DISCOVERY LIMITED, priority 2016, dated 2020).
pIC50: −log10 of the molar value.

Target: Wee-1 kinase (Homo sapiens (Human), UniProt P30291)
Experiment: Measurement of Wee-1 kinase activity (ADP-Glo luminescence)
Format: biochemical
Details: read-out: Wee1 IC50
Procedure: Method 1: Measurement of Wee-1 Kinase Activity
In the measurement of Wee-1 activity, a commercial peptide Poly(Lys Tyr(4:1)) hydrobromide was purchased from Sigma Aldrich and used as the substrate. Activated Wee-1 kinase was purchased from Invitrogen (PV3817) and an ADP-Glo luminescent kit was purchased from Promega.
All reactions took place in […] volumes in reaction buffer containing 40 mM Tris-HCl and 20 mM magnesium chloride, supplemented with 0.1 mg/mL bovine serum albumin and 2 mM DTT. Compounds were serially diluted in buffer and 5 μL of each concentration pipetted into a white 384 well plate (Sigma Aldrich M6186). A 5 μL aliquot of the Wee-1 enzyme was added to each well and the plate centrifuged for 1 min to ensure mixing of the enzyme and inhibitor.
The plate was incubated at room temperature for 30 minutes before the addition of 2.0 μg/mL of substrate and 30 μM ATP in a 5 μL aliquot. The plate was centrifuged for one minute and incubated for 1 h at RT.
15 μL of ADP-Glo stop reagent was added to each well to quench the reaction and deplete unconverted ATP. The plate was incubated for a further 40 min in the dark at RT.
30 μL of ADP-Glo kinase detection reagent was added to each well, converting ADP to ATP, catalysing the generation of luciferin by luciferase. The plate was shaken for 1 min, and incubated in the dark for an additional hour.
Luminescence from each well was detected using the Biotek Synergy4 HD plate reader and the percentage inhibition of kinase activity calculated for each inhibitor tested. Positive (kinase only) and negative (no kinase) controls were added to each plate to ensure specific interaction of kinase and inhibitor. The IC50 concentration for each inhibitor was calculated by plotting the percentage kinase inhibition against concentration of inhibitor and the curve generated by non-linear regression fitting.

Chain of Wee-1 kinase (P30291 whole entry): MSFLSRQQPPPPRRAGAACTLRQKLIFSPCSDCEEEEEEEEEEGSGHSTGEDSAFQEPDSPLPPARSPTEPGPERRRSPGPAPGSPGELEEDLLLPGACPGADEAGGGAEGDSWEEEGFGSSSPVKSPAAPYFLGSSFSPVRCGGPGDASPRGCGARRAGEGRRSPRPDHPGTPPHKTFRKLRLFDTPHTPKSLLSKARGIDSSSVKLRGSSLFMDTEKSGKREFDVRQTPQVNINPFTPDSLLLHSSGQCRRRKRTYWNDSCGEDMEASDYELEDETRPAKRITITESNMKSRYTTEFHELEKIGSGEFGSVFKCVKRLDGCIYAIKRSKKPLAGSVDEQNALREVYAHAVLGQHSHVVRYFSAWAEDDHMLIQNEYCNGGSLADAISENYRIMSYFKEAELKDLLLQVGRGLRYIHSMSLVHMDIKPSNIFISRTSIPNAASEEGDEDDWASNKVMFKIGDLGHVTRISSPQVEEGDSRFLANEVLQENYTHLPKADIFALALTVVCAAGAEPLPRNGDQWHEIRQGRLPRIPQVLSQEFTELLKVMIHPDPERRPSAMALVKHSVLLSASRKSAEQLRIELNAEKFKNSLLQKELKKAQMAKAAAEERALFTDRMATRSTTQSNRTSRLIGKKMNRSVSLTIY

| SMILES | pIC50 |
| --- | --- |
| C=CCn1c(=O)c2cnc(Nc3ccc(N(C)C)c(C(O)C(F)(F)F)c3)nc2n1-c1cccc(N=S(C)(C)=O)n1 (racemic) [Example 83, rac-1-(6-{[Dimethyl(oxo)-λ^6-sulfanylidene]amino}pyridin-2-yl)-6-{[4-(dimethylamino)-3-(2,2,2-trifluoro-1-hydroxyethyl)phenyl]amino}-2-(prop-2-en-1-yl)-1H,2H,3H-pyrazolo[3,4-d]pyrimidin-3-one] | 9.40 |
| C=CCn1c(=O)c2cnc(Nc3ccc(N4CCNC(C(F)(F)F)C4)cc3)nc2n1-c1cncc(N=S(C)(C)=O)n1 (racemic) [Example 93, rac-1-(6-{[Dimethyl(oxo)-λ^6-sulfanylidene]amino}pyrazin-2-yl)-2-(prop-2-en-1-yl)-6-({4-[3-(trifluoromethyl)piperazin-1-yl]phenyl}amino)-1H,2H,3H-pyrazolo[3,4-d]pyrimidin-3-one] | 9.40 |
| C=CCn1c(=O)c2cnc(Nc3ccc(N4CCN(C)CC4)cc3)nc2n1-c1cccc(S(C)(=O)=NC#N)n1 (centres unmarked) [Example 1, 1-{6-[(Cyanoimino)(methyl)oxo-λ^6-sulfanyl]pyridin-2-yl}-6-{[4-(4-methylpiperazin-1-yl)phenyl]amino}-2-(prop-2-en-1-yl)-1H,2H,3H-pyrazolo[3,4-d]pyrimidin-3-one] | 8.96 |
| C=CCn1c(=O)c2cnc(Nc3ccc(N4CCNCC4)cc3)nc2n1-c1cccc(N=S(C)(C)=O)n1 [Example 6, 1-(6-{[Dimethyl(oxo)-λ^6-sulfanylidene]amino}pyridine-2-yl)-6-{[4-(piperazin-1-yl)phenyl]amino}-2-(prop-2-en-1-yl)-1H,2H,3H-pyrazolo[3,4-d]pyrimidin-3-one] | 8.74 |
| C=CCn1c(=O)c2cnc(Nc3ccc(N4CCN(C5CC5)CC4)cc3)nc2n1-c1cccc(N=S(C)(C)=O)n1 [Example 8, 6-{[4-(4-Cyclopropylpiperazin-1-yl)phenyl]amino}-1-(6-{[dimethyl(oxo)-λ^6-sulfanylidene]amino}pyridine-2-yl)-2-(prop-2-en-1-yl)-1H,2H,3H-pyrazolo[3,4-d]pyrimidin-3-one] | 9.52 |
| C=CCn1c(=O)c2cnc(Nc3ccc(N4CCN[C@H](C)C4)cc3)nc2n1-c1cccc(N=S(C)(C)=O)n1 [Example 9, 1-(6-{[Dimethyl(oxo)-λ^6-sulfanylidene]amino}pyridine-2-yl)-6-({4-[(3R)-3-methylpiperazin-1-yl]phenyl}amino)-2-(prop-2-en-1-yl)-1H,2H,3H-pyrazolo[3,4-d]pyrimidin-3-one] | 8.82 |
| C=CCn1c(=O)c2cnc(Nc3ccc(N4CCN(CC)CC4)cc3)nc2n1-c1cccc(N=S(C)(C)=O)n1 [Example 10, 1-(6-{[Dimethyl(oxo)-λ^6-sulfanylidene]amino}pyridine-2-yl)-6-{[4-(4-ethylpiperazin-1-yl)phenyl]amino}-2-(prop-2-en-1-yl)-1H,2H,3H-pyrazolo[3,4-d]pyrimidin-3-one] | 9.05 |
| CCCn1c(=O)c2cnc(Nc3ccc(N4CCN(C)CC4)cc3)nc2n1-c1cccc(N=S(C)(C)=O)n1 [Example 11, 1-(6-{[Dimethyl(oxo)-λ^6-sulfanylidene]amino}pyridine-2-yl)-6-{[4-(4-methylpiperazin-1-yl)phenyl]amino}-2-propyl-1H,2H,3H-pyrazolo[3,4-d]pyrimidin-3-one] | 8.92 |
| C=CCn1c(=O)c2cnc(Nc3ccc(C4CCNCC4)cc3)nc2n1-c1cccc(N=S(C)(C)=O)n1 [Example 13, 1-(6-{[Dimethyl(oxo)-λ^6-sulfanylidene]amino}pyridine-2-yl)-6-{[4-(piperidin-4-yl)phenyl]amino}-2-(prop-2-en-1-yl)-1H,2H,3H-pyrazolo[3,4-d]pyrimidin-3-one] | 8.92 |
| C=CCn1c(=O)c2cnc(Nc3ccc4c(c3)CN(C)CC43CC3)nc2n1-c1cccc(N=S(C)(C)=O)n1 [Example 15, 1-(6-{[Dimethyl(oxo)-λ^6-sulfanylidene]amino}pyridine-2-yl)-6-({2′-methyl-2′,3′-dihydro-1′H-spiro[cyclopropane-1,4′-isoquinoline]-7′-yl}amino)-2-(prop-2-en-1-yl)-1H,2H,3H-pyrazolo[3,4-d]pyrimidin-3-one] | 9.05 |
| C=CCn1c(=O)c2cnc(Nc3ccc(N4CCN(C)CC4)cc3)nc2n1-c1cccc(N=S(C)(C)=O)c1 [Example 16, 1-(3-{[Dimethyl(oxo)-λ^6-sulfanylidene]amino}phenyl)-6-{[4-(4-methylpiperazin-1-yl)phenyl]amino}-2-(prop-2-en-1-yl)-1H,2H,3H-pyrazolo[3,4-d]pyrimidin-3-one] | 9.00 |
| C=CCn1c(=O)c2cnc(Nc3ccc(N4C[C@@H](C)N[C@@H](C)C4)cc3)nc2n1-c1cccc(N=S(C)(C)=O)n1 [Example 17, 1-(6-{[Dimethyl(oxo)-λ^6-sulfanylidene]amino}pyridin-2-yl)-6-({4-[(3R,5S)-3,5-dimethylpiperazin-1-yl]phenyl}amino)-2-(prop-2-en-1-yl)-1H,2H,3H-pyrazolo[3,4-d]pyrimidin-3-one] | 8.96 |
| C=CCn1c(=O)c2cnc(Nc3ccc(N4CCNCC4)cc3)nc2n1-c1cccc(N=S(C)(C)=O)c1 [Example 18, 1-(3-{[Dimethyl(oxo)-λ^6-sulfanylidene]amino}phenyl)-6-{[4-(piperazin-1-yl)phenyl]amino}-2-(prop-2-en-1-yl)-1H,2H,3H-pyrazolo[3,4-d]pyrimidin-3-one] | 9.10 |
| C=CCn1c(=O)c2cnc(Nc3ccccc3)nc2n1-c1cccc(N=S(C)(C)=O)n1 [Example 19, 1-(6-{[Dimethyl(oxo)-λ^6-sulfanylidene]amino}pyridin-2-yl)-6-(phenylamino)-2-(prop-2-en-1-yl)-1H,2H,3H-pyrazolo[3,4-d]pyrimidin-3-one] | 9.00 |
| C=CCn1c(=O)c2cnc(Nc3ccc(N4CCOCC4)c(CNC)c3)nc2n1-c1cccc(N=S(C)(C)=O)c1 [Example 22, 1-(3-{[Dimethyl(oxo)-λ^6-sulfanylidene]amino}phenyl)-6-({3-[(methylamino)methyl]-4-(morpholin-4-yl)phenyl}amino)-2-(prop-2-en-1-yl)-1H,2H,3H-pyrazolo[3,4-d]pyrimidin-3-one] | 8.59 |
| C=CCn1c(=O)c2cnc(Nc3ccc(N4CCN(C)CC4)cc3)nc2n1-c1cccc(N=S2(=O)CCCC2)n1 [Example 23, 2-Allyl-6-((4-(4-methylpiperazin-1-yl)phenyl)amino)-1-(6-((1-oxidotetrahydrothiophen-1-ylidene)amino)pyridin-2-yl)-1H-pyrazolo[3,4-d]pyrimidin-3(2H)-one] | 9.05 |
| C=CCn1c(=O)c2cnc(Nc3ccc(N4CCN(C)CC4)c(OC)c3)nc2n1-c1cccc(N=S(C)(C)=O)n1 [Example 24, 1-(6-{[Dimethyl(oxo)-λ^6-sulfanylidene]amino}pyridin-2-yl)-6-{[3-methoxy-4-(4-methylpiperazin-1-yl)phenyl]amino}-2-(prop-2-en-1-yl)-1H,2H,3H-pyrazolo[3,4-d]pyrimidin-3-one] | 8.85 |
| C=CCn1c(=O)c2cnc(Nc3ccc(N4CCOCC4)c(OC)c3)nc2n1-c1cccc(N=S(C)(C)=O)n1 [Example 25, 1-(6-{[Dimethyl(oxo)-λ^6-sulfanylidene]amino}pyridin-2-yl)-6-{[3-methoxy-4-(morpholin-4-yl)phenyl]amino}-2-(prop-2-en-1-yl)-1H,2H,3H-pyrazolo[3,4-d]pyrimidin-3-one] | 9.15 |
| C=CCn1c(=O)c2cnc(Nc3ccc(OCCNC)cc3)nc2n1-c1cccc(N=S(C)(C)=O)c1 [Example 27, 1-(3-{[Dimethyl(oxo)-λ^6-sulfanylidene]amino}phenyl)-6-({4-[2-(methylamino)ethoxy]phenyl}amino)-2-(prop-2-en-1-yl)-1H,2H,3H-pyrazolo[3,4-d]pyrimidin-3-one] | 8.77 |
| C=CCn1c(=O)c2cnc(Nc3ccc(N4CCN(C)CC4)c(C)c3)nc2n1-c1cccc(N=S(C)(C)=O)n1 [Example 28, 1-(6-{[Dimethyl(oxo)-λ^6-sulfanylidene]amino}pyridin-2-yl)-6-{[3-methyl-4-(4-methylpiperazin-1-yl)phenyl]amino}-2-(prop-2-en-1-yl)-1H,2H,3H-pyrazolo[3,4-d]pyrimidin-3-one] | 9.15 |
| C=CCn1c(=O)c2cnc(Nc3ccc(N4CCNCC4)c(CO)c3)nc2n1-c1cccc(N=S(C)(C)=O)c1 [Example 29, 1-(3-{[Dimethyl(oxo)-λ^6-sulfanylidene]amino}phenyl)-6-{[3-(hydroxymethyl)-4-(piperazin-1-yl)phenyl]amino}-2-(prop-2-en-1-yl)-1H,2H,3H-pyrazolo[3,4-d]pyrimidin-3-one] | 9.05 |
| C=CCn1c(=O)c2cnc(Nc3ccc(N4CCN(C)CC4)c(CO)c3)nc2n1-c1cccc(N=S(C)(C)=O)c1 [Example 30, 1-(3-{[Dimethyl(oxo)-λ^6-sulfanylidene]amino}phenyl)-6-{[3-(hydroxymethyl)-4-(4-methylpiperazin-1-yl)phenyl]amino}-2-(prop-2-en-1-yl)-1H,2H,3H-pyrazolo[3,4-d]pyrimidin-3-one] | 9.30 |
| C=CCn1c(=O)c2cnc(Nc3ccc(N4CCOCC4)cc3)nc2n1-c1cccc(N=S(C)(C)=O)c1 [Example 31, 1-(3-{[Dimethyl(oxo)-λ^6-sulfanylidene]amino}phenyl)-6-{[4-(morpholin-4-yl)phenyl]amino}-2-(prop-2-en-1-yl)-1H,2H,3H-pyrazolo[3,4-d]pyrimidin-3-one] | 8.85 |
